Assay results taken from patent publication US20060079439A1, “Elastin prevents occlusion of body vessels by vascular smooth muscle cells” (priority 2002, published 2006).
Entries after “also recorded” stand apart in the source; their conditions may differ. Read-outs that look alike come from different tables or passages of the source. *1 amine or outer side, *2 acyl side, *3 side chain or, on linkers, in order; H or OH if unused. Where a SMILES comes first, the peptide text is derived from it. Bridges are numbered along the chain shown (N, C = ends). Roman numbers before positions name the chains, in order. [ ]: non-standard residue; d: D form. Actinocin(9to1) = Cc1c2oc3c(C)ccc(C(=O)[*:1])c3nc-2c(C(=O)[*:2])c(N)c1=O; NMeV = CN[C@H](C(=O)O)C(C)C; Sar = CNCC(=O)O

Assays:
[1] = tested on: vascular smooth muscle cells; format: cell-based, mouse; conditions: for effect of inhibitor on elastin peptide induced cell migration / effect of inhibitor on migration in response to PDGF: 10 μM genistein, 100 ng/ml pertussis toxin; for effect of inhibitor on elastin peptide induced cell migration: 100 ng/ml β-protomer, 20 μM Y27632; for effect on migration of Eln −/− vsmcs towards elastin: pertussis toxin 100 ng/ml, preliminary experiments; for effect of inhibitor on migration in response to PDGF: 30 ng/ml PDGF
Method: (§1) Instead, we postulated that elastin signals vsmcs to migrate and adhere to the elastic lamellae. To test this hypothesis we used a modified Boyden chamber assay (Li et al., 1998; Raines et al., 1993). This assay system consists of two adjacent chambers separated by a semipermeable membrane. The amount of cells placed in one chamber (upper) that migrate to the other chamber (lower) is measured by counting the number of cells that have passed through to the undersurface of the filter.
Briefly, chemotaxis was measured using a modified Boyden chamber method. […] Prior to their addition to the upper chamber, vascular smooth muscle cells were incubated with either 20 μM EDTA (inhibitor of integrin receptors), 10 μM genistein (inhibitor of receptor tyrosine kinases), 100 ng/ml pertussis toxin, 100 ng/ml β-protomer, 20 μM Y27632, or the cells were left untreated. […] Cells were added to the upper chamber and incubated for three hours.

[2] = tested on: Eln −/− vascular smooth muscle cells; conditions: for effect of pretreatment on tropoelastin- or elastin peptide-induced actin stress fiber formation: 100 μM actinomycin D, 10 μg/ml cyclohexamide, 100 ng/ml pertussis toxin or β protomer, 20 μM EDTA, 10 μM genistein; for effect on induction of contractile organization in Eln −/− vsmcs by elastin: pertussis toxin 100 ng/ml, preliminary experiments; for formation of organized actin stress fibers / actin myofilament polymerization: 3 hours, 1 ug/ml tropoelastin, 10 nM elastin peptide or 10 nM control peptide
[3] = tested on: cAMP levels in Eln −/− vsmcs; format: cell-based, mouse; conditions: for forskolin induced cAMP levels: 10 μM forskolin pretreatment, 1 ug/ml tropoelastin, 10 μM elastin peptide or control peptide
[4] = tested on: −/− vascular smooth muscle cells; test: F:G actin ratio, sedimentation assay; format: cell-based, mouse; conditions: for increase in the F:G actin ratio: versus untreated cells
RhoA = RhoA activation, Rhotekin bead pull-down and Western blot; format: cell-based, mouse; conditions: for GTP-bound (activated) RhoA: lysates of treated −/− cells
Text: Briefly, cell lysates from treated or untreated −/− cells were immunoprecipitated using Rhotekin-coated beads which recognize GTP-bound RhoA. […] Rho-γGTP served as a positive control and Rho-GDP served as a negative control.

[5] = tested on: α smooth muscle actin and vinculin in elastin −/− vascular smooth muscle cells; test: Western blot of protein levels; format: cell-based, mouse; conditions: three hours; 1 μg/ml tropoelastin, 10 μM elastin peptide
Method: We performed two experiments to address this model. […] Cells were washed with ice-cold DPBS and lysed in an additional 1 ml of Laemmli sample buffer. Following lysis, cells were collected, boiled, pelleted, and resolved by SDS-PAGE. The resolved samples were transferred to a membrane, blocked with 5% milk/PBST, incubated with either an anti-α smooth muscle actin antibody or an anti-vinculin antibody, and visualized using chemiluminescence.

[6] = tested on: Eln −/− vascular smooth muscle cells; test: Focal adhesion organization, vinculin immunofluorescence; format: cell-based, mouse; conditions: 3 hours, 1 ug/ml tropoelastin, 10 nM elastin peptide or 10 nM control peptide
[7] = tested on: Eln +/+ vascular smooth muscle cells; conditions: recombinant tropoelastin treatment
[8] = tested on: Eln +/+ and Eln −/− vsmcs; conditions: added to the media; 24, 48, and 72 hours
[9] = tested on: Eln +/+ and Eln −/− vsmcs; conditions: trypan blue, end of the experiment (72 hours)
[10] = tested on: GiRK channel (GiRK 1 and GiRK 4) in A2058 cells; test: GiRK channel activity in transfected A2058 cells; format: cell-based; conditions: A2058 cells transiently transfected with GiRK 1 and GiRK 4
Text: Briefly, A2058 cells which are known to be responsive to elastin signaling were used in these studies. A2058 cells were transiently transfected with GiRK 1 and GIRK 4 inorder to form functional heteromultimeric GiRK channels. Transfected cells were contacted with either tropoelastin, a peptide containing 7 repeats of the tropoelastin fragment VGVAPG, or a control peptide.

[11] = tested on: Eln +/+ vascular smooth muscle cells; test: Actin stress fiber organization, immunofluorescence scoring; format: cell-based, mouse; conditions: elastin treatment
CHO cells = test: Modified Boyden chamber chemotaxis assay; format: cell-based
Text: as §1, with “In Eln −/− arteries, vascular smooth muscle cells accumulated in the subendothelial space and occluded the artery. […] Because the elastic lamellae are highly fenestrated allowing cells to migrate through, it is unlikely that elastin simply forms a physical cage that contains vsmcs. Instead,” for “Instead,”

COS cells = test: Modified Boyden chamber chemotaxis assay; format: cell-based
Text: as §1, with “In Eln −/− arteries, vascular smooth muscle cells accumulated in the subendothelial space and occluded the artery. […] Because the elastic lamellae are highly fenestrated allowing cells to migrate through, it is unlikely that elastin simply forms a physical cage that contains vsmcs. Instead,” for “Instead,”

[12] = listed as recombinant tropoelastin

For `C[C@@H](N)[C@H]1CC[C@H](C(=O)Nc2ccncc2)CC1` [Y-27632], the “effect of inhibitor on elastin peptide induced cell migration” value ([1]; 20 μM EDTA) was “does not block” and the “effect of pretreatment on tropoelastin- or elastin peptide-induced actin stress fiber formation” value [2] was “significantly decreased”.

For `O=C(O)CN(CCN(CC(=O)O)CC(=O)O)CC(=O)O` [EDTA, ethylenediamine tetraacetic acid], the “effect of inhibitor on migration in response to collagen” value ([1]; 10 μg/ml collagen type I, 20 μM EDTA) was “able to block”, the “effect of inhibitor on elastin peptide induced cell migration” value ([1]; 20 μM EDTA) was “insensitive” and the “effect on migration of Eln −/− vsmcs towards elastin” value [1] was “insensitive”. For the same molecule, the “effect of pretreatment on tropoelastin- or elastin peptide-induced actin stress fiber formation” value [2] was “not altered” and the “effect on induction of contractile organization in Eln −/− vsmcs by elastin” value [2] was “little or no inhibition”.

In the case of pertussis toxin, the “effect on the tropoelastin or elastin peptide effect on forskolin induced cAMP levels” value [3] is reported as “blocked”, the “effect of pretreatment on the tropoelastin or elastin peptide effect on the F:G actin ratio” value ([4]; 100 ng/ml pretreatment) is reported as “significantly decreased” and the “effect of inhibitor on migration in response to PDGF” value [1] is reported as “no impact; also recorded: insensitive”. The “effect of inhibitor on elastin peptide induced cell migration” value ([1]; 20 μM EDTA) was “blocked”, the “effect on migration of Eln −/− vsmcs towards elastin” value [1] was “sensitive” and the “effect of pretreatment on tropoelastin- or elastin peptide-induced actin stress fiber formation” value [2] was “significantly decreased”. The “effect on induction of contractile organization in Eln −/− vsmcs by elastin” value [2] was “sensitive” and the “RhoA activation by tropoelastin or elastin peptide after pretreatment” value (RhoA; pretreatment with pertussis toxin) was “unable to activate RhoA”.

In the case of `C[C@@H]1C[C@@H]([C@H](O)CC2CC(=O)NC(=O)C2)C(=O)[C@@H](C)C1` [cyclohexamide], the “effect of pretreatment on tropoelastin- or elastin peptide-induced actin stress fiber formation” value [2] is reported as “maintained”.

In the case of “VGVAPG (A bioactive fragment of tropoelastin.) [elastin peptide]”, the “forskolin induced cAMP levels” value [3] is reported as “decrease”, the “increase in the F:G actin ratio” value [4] is reported as 3 fold and the “protein levels of α smooth muscle actin or vinculin” value [5] is reported as “does not alter”. For the same molecule, the “vascular smooth muscle migration relative to tropoelastin and PDGF” value ([1]; 20 nM elastin peptide, three hours) was “comparable to both tropoelastin and PDGF”, the “organization of focal adhesions (vinculin)” value (“organization … (vinculin)” for short) [6] was “induced organization of focal adhesions” and the “formation of organized actin stress fibers / actin myofilament polymerization” value [2] was “induced actin myofilament polymerization”. For the same molecule, the “dose dependence of the increase of actin stress fibers” value ([2]; three hours, 0.2 nM to 20 μM) was “dose dependent”, the “treatment time of maximal effect on actin stress fiber formation” value ([2]; time course 15 minutes to 24 hours) was “about 6 hours” and the “GTP-bound (activated) RhoA” value (RhoA) was “significant increase”.

For cholera toxin [reference compound], the cAMP levels [3] was “increased”.

For `O=c1c(-c2ccc(O)cc2)coc2cc(O)cc(O)c12` [genistein], the “effect of inhibitor on migration in response to PDGF” value [1] was “able to block”, the “effect of inhibitor on elastin peptide induced cell migration” value ([1]; 20 μM EDTA) was “insensitive” and the “effect of pretreatment on tropoelastin- or elastin peptide-induced actin stress fiber formation” value [2] was “not altered”.

In the case of `Cc1c2oc3c(C)ccc(C(=O)N[C@@H]4C(=O)N[C@H](C(C)C)C(=O)N5CCC[C@H]5C(=O)N(C)CC(=O)N(C)[C@@H](C(C)C)C(=O)O[C@@H]4C)c3nc-2c(C(=O)N[C@@H]2C(=O)N[C@H](C(C)C)C(=O)N3CCC[C@H]3C(=O)N(C)CC(=O)N(C)[C@@H](C(C)C)C(=O)O[C@@H]2C)c(N)c1=O` [actinomycin D] (I: T[dV]P[Sar][NMeV] / II: T[dV]P[Sar][NMeV]; ester I:1-I:C, II:1-II:C; linker I:N-II:N via Actinocin(9to1)), the “effect of pretreatment on tropoelastin- or elastin peptide-induced actin stress fiber formation” value [2] is reported as “maintained”.

With “control peptide: control peptide (SEQ ID NO: 4) (VSLSPG; Control random fragment.) [reference compound]” the “forskolin induced cAMP levels” value [3] was “not”, the “increase in the F:G actin ratio” value [4] was “not” and the “formation of organized actin stress fibers / actin myofilament polymerization” value [2] was “did not produce this effect”.

B1: tropoelastin: protein encoded by the elastin gene; human amino acid sequence SEQ ID NO: 2; used as recombinant tropoelastin (protein, listed as Homo sapiens)
chain: MAGLTAAAPRPGVLLLLLSILHPSRPGGVPGAIPGGVPGGVFYPGAGLGALGGGALGPGGKPLKPVPGGLAGAGLGAGLGAFPAVTFPGALVPGGVADAAAAYKAAKAGAGLGGVPGVGGLGVSAGAVVPQPGAGVKPGKVPGVGLPGVYPGGVLPGARFPGVGVLPGVPTGAGVKPKAPGVGGAFAGIPGVGPFGGPQPGVPLGYPIKAPKLPGGYGLPYTTGKLPYGYGPGGVAGAAGKAGYPTGTGVGPQAAAAAAAKAAAKFGAGAAGVLPGVGGAGVPGVPGAIPGIGGIAGVGTPAAAAAAAAAAKAAKYGAAAGLVPGGPGFGPGVVGVPGAGVPGVGVPGAGIPVVPGAGIPGAAVPGVVSPEAAAKAAAKAAKYGARPGVGVGGIPTYGVGAGGFPGFGVGVGGIPGVAGVPSVGGVPGVGGVPGVGISPEAQAAAAAKAAKYGVGTPAAAAAKAAAKAAQFGLVPGVGVAPGVGVAPGVGVAPGVGLAPGVGVAPGVGVAPGVGVAPGIGPGGVAAAAKSAAKVAAKAQLRAAAGLGAGIPGLGVGVGVPGLGVGAGVPGLGVGAGVPGFGAGADEGVRRSLSPELREGDPSSSQHLPSTPSSPRVPGALAAAKAAKYGAAVPGVLGGLGALGGVGIPGGVVGAGPAAAAAAAKAAAKAAQFGLVGAAGLGGLGVGGLGVPGVGGLGGIPPAAAAKAAKYGAAGLGGVLGGAGQFPLGGVAARPGFGLSPIFPGGACLGKACGRKRK
In the case of B1, the “cAMP levels in the presence of cholera toxin” value [3] is reported as “significantly reduced”, the “forskolin induced cAMP levels” value [3] is reported as “decrease” and the “increase in cAMP” value ([3]; elastin treatment alone) is reported as 3 fold. For the same molecule, the “level of cAMP in the presence of pertussis toxin” value ([3]; pertussis toxin and elastin) was “raises the level of cAMP”, the “vinculin organization in Eln +/+ vsmcs” value [7] was “does not affect vinculin organization” and the “proliferation of Eln −/− and Eln +/+ vsmcs” value [8] was “reduced to similar levels”. The “increase in the F:G actin ratio” value [4] was 3 fold, the cell viability [9] was greater than 98% and the “protein levels of α smooth muscle actin or vinculin” value [5] was “does not alter”. For the same molecule, the “migration of murine vsmcs to recombinant tropoelastin” value [1] was “migrated aggressively”, the “migration without concentration gradient (checkerboard analysis)” value ([1]; 200 ng to 200 ng gradient) was “minimal migration” and the “amount of migration induced, relative to platelet derived growth factor” value ([1]; data not shown) was “equivalent to the standard dose of 30 ng/ml of platelet derived growth factor”. The “migration of Eln +/+ vsmcs relative to Eln −/− vsmcs” value ([1]; exogenous tropoelastin) was “did not migrate towards exogenous tropoelastin as readily as Eln −/− vsmcs”, the GiRK channel activity [10] was “activation” and the “organization … (vinculin)” value [6] was “induced organization of focal adhesions”. For the same molecule, the “organization … (vinculin)” value [6, 12] was “induces well-defined focal adhesions”, the “actin stress fiber organization in Eln +/+ cells” value ([11]; listed as elastin) was “no affect” and the “actin stress fiber organization in Eln +/+ cells” value [11, 12] was “does not affect”. For the same molecule, the “formation of organized actin stress fibers / actin myofilament polymerization” value [2] was “induced actin myofilament polymerization”, the “formation of organized actin stress fibers / actin myofilament polymerization” value [2, 12] was “induces the formation of organized actin stress fibers” and the “GTP-bound (activated) RhoA” value (RhoA) was “significant increase”. The “migration of CHO cells exposed to elastin” value (CHO cells) was “No migration” and the “migration of COS cells exposed to elastin” value (COS cells) was “No migration”.
